# “And” between values parts separate entries of the source, which are not always exact repeats. Equal values may be shown once.
# Test: Kinetic solubility of compound by measuring concentration at pH 7.4 in saturated PBS buffer by UV LCMS/MS using calibration curves. The assay has been performed by Enamine biological services, Bienta Ltd.The protocol is publicly available: dx.doi.org/10.17504/protocols.io.j8nlk8y41l5r/v1
# Type: physicochemical
# Conditions: PBS buffer
row,solubility kinetic [µM],Compound
1,320,COCCNC(=O)[C@H](Nc1ccc2c(c1)CNC2)c1cc(Cl)cc(C2CC2)c1
2,374,N#CCCNC(=O)[C@H](Nc1ccc2c(c1)CNC2)c1cc(Cl)cc(C2CC2)c1
3,358,CNC(=O)[C@H](Nc1ccc2c(c1)CNC2)c1cc(Cl)cc(C2CC2)c1
4,≥ 400,O=C(NCC(F)F)[C@H](Nc1ccc2c(c1)CNC2)c1cc(Br)cc2nc[nH]c12
5,394,O=C(NCCCF)[C@H](Nc1ccc2c(c1)CNC2)c1cc(Cl)cc(C2CC2)c1
6,192,COCc1cc(Cl)cc([C@H](Nc2ccc3c(c2)CNC3)C(=O)NCC(F)F)c1
7,≥ 400,CNC(=O)c1cc(Br)cc([C@H](Nc2ccc3c(c2)CNC3)C(=O)NCC(F)F)c1
8,379,CCCCNC(=O)[C@H](Nc1ccc2c(c1)CNC2)c1cc(Cl)cc(C2CC2)c1
9,≥ 400,COc1cc(Cl)cc([C@H](Nc2ccc3c(c2)CNC3)C(=O)NCC(F)F)c1
10,362,O=C(NCC(F)F)[C@H](Nc1cnc2c(c1)CNC2)c1cc(Cl)cc(C2CC2)c1
11,≥ 400,Cc1cc([C@H](Nc2ccc3c(c2)CNC3)C(=O)NCC(F)F)cc(C(F)(F)F)c1
12,≥ 400,O=C(NCC(F)F)[C@H](Nc1ccc2c(c1)CNC2)c1cc(Cl)cc2c1CCC2
13,187,O=C(NCC(F)F)[C@H](Nc1ccc2c(c1)CNC2)c1cc(Cl)cc2ccoc12
14,381,COc1cc(C#N)cc([C@H](Nc2ccc3c(c2)CNC3)C(=O)NCC(F)F)c1

# The remaining lines, values behind:
row,Compound,solubility kinetic [µM]
1,CN(c1ccc2c(c1)CNC2)[C@H](C(=O)NCC(F)F)c1cc(Cl)cc(C2CC2)c1,172
2,CSc1cc2c(cc1NC(=O)c1cc(F)cc3[nH]ncc13)CNC2,392
3,O=C(Nc1ccc2c(c1)CNC2)c1cccc2[nH]c(C(F)(F)F)cc12,372
4,N#Cc1cccc(-c2nc3c(C(=O)Nc4ccc5c(c4)CNC5)cc(F)cc3[nH]2)c1,3
5,O=C(Nc1ccc2c(c1)CNC2)c1ccc2[nH]cc(C3CCNCC3)c2c1,377
6,CO[C@H]1C[C@H](n2ncc3c(C(=O)Nc4ccc5c(c4)CNC5)cc(Cl)cc32)C1,340
7,Cn1cc2c(C(=O)Nc3ccc4c(c3)CNC4)cc(F)cc2n1,309
8,O=C(NCC(F)F)[C@H](Nc1cc2c(cc1Br)CNC2)c1cc(Cl)cc(C2CC2)c1,333
9,COc1ccc(-c2nc3c(C(=O)Nc4ccc5c(c4)CNC5)cc(F)cc3[nH]2)nn1,16
10,O=C(Nc1cc(Br)c2c(c1)CNC2)c1cc(F)cc2[nH]ncc12,4
11,O=C1Cc2c(cc(F)cc2C(=O)Nc2ccc3c(c2)CNC3)N1,368
12,Cn1c(=O)[nH]c2c(C(=O)Nc3ccc4c(c3)CNC4)cc(Br)cc21,161
13,Cn1ncc2c(C(=O)Nc3ccc4c(c3)CNC4)cc(Cl)cc21,≥ 400
14,O=C(Nc1ccc2c(c1)CNC2)c1cc(F)cc2[nH]c(-c3ccc(F)cc3)nc12,6
15,Nc1ccncc1-c1cc(F)cc(C(=O)Nc2ccc3c(c2)CNC3)c1,392
16,CC(C)n1cc2c(C(=O)Nc3ccc4c(c3)CNC4)cc(Cl)cc2n1,181
17,O=C(Nc1cc2c(c(C3=CCS(=O)(=O)CC3)c1)CNC2)c1cc(F)cc2[nH]ncc12,141
18,O=C(Nc1ccc2c(c1)CNC2)c1cc(Cl)cc2c1cnn2C1CCC1,172
19,O=C(Nc1cc2c(c(C3=CCOCC3)c1)CNC2)c1cc(F)cc2[nH]ncc12,157

# Same assay, conditions: buffer
row,Solubility (mean),Compound
1,367 µM and 326 µM,O=C(NCC(F)F)[C@H](Nc1ccc2c(c1)CNC2)c1cc(Cl)cc(C2CC2)c1

# Same assay, conditions: buffer, ph 7.5
row,Solubility (mean) [µM],Compound
1,139,O=C(NCC(F)F)[C@H](Nc1ccc2c(c1)CNC2)c1cc(Cl)cc(C2CC2)c1

# Source: ChEMBL document CHEMBL5674850, “ASAP - Solubility” (2024)
